Reference: US20230364032A1, “USE OF 2-HOBA TO TREAT ATHEROSCLEROSIS” (Vanderbilt University, priority 2020, published 2023)
Entries after “also recorded” stand apart in the source; their conditions may differ.

Key:
[1] = 2-HOBA and 4-HOBA levels in plasma and tissues of C57BL/6J mice after intraperitoneal injection (LC/MS); assay type: in vivo, mouse; settings: for liver, spleen, and kidney levels of 2-HOBA versus 4-HOBA: 30 min after intraperitoneal injection
Method: FIG. 12A-12D show the levels of 2-HOBA or 4-HOBA in plasma and tissues from C57BL/6J mice. A. Plasma samples were collected from female C57BL/6J mice on a chow diet after intraperitoneal injection of 1 mg 2-HOBA (n=3) or 1 mg 4-HOBA (n=3). *p<0.01, Student t test. B-D. Levels of 2-HOBA and 4-HOBA in liver (B), spleen (C), and kidney (D) of WT mice 30 min after intraperitoneal injection. (Mean±SEM shown for each, N.S. Student t test). The levels of 2-HOBA or 4-HOBA were measured in the plasma and tissues using LC/MS as described in the Methods.
(§1) Measurement of 2-HOBA and 4-HOBA was performed by LC/MS after derivatization with phenylisothiocyanate (PITC), and using [^2H4]-2-HOBA as an internal standard as previously described for 2-HOBA^71 (See FIG. 23). For these assays, the Waters Xevo-TQ-Smicro triple quadrupole mass spectrometer operating in positive ion multiple reaction monitoring (MRM) mode monitored the following transitions: for PITC-2-HOBA or PITC-4-HOBA, m/z 259→107@20 eV (quantifier transition) and m/z 259→153 @20 eV (qualifier transition); for PITC-[^2H4]2-HOBA m/z 263 →107@20 eV (quantifier transition), m/z 263→111 @20 eV (qualifier transition). Abundance for PITC-2-HOBA was calculated based on the ratio of peak area versus that of PITC-[^2H4]2-HOBA. Because the transition reactions for PITC-4-HOBA are less efficient than for PITC-2-HOBA, the ratio of peak areas for PITC-4-HOBA/PITC-[^2l H4]2-HOBA was multiplied by the correction factors 3.9 and 5.7 when using the m/z 107 and m/z 153 transition, respectively (See FIG. 24).

[2] = 2-HOBA and 4-HOBA levels in plasma and tissues of Ldlr−/− mice (LC/MS); assay type: in vivo; settings: for concentration at 16 weeks: Ldlr−/− on C57BL/6 background, mouse, plasma, oral, 1 g/L in drinking water, male Ldlr−/− mice after 16 weeks of treatment with 1 g/L of water; for levels in the aorta and heart / plasma levels of 2-HOBA versus 4-HOBA: male Ldlr−/− mice; for levels in the aorta and heart: 30 min after oral gavage; for plasma levels of 2-HOBA versus 4-HOBA: 30 min after oral gavage of 5 mg
Method: FIG. 11A-11C show the concentration of 2-HOBA or 4-HOBA was measured in plasma and tissues from Ldlr^−/− mice. A. Eight week old male Ldlr^−/− mice were fed WD for 16 weeks and were continuously treated with water containing either 2-HOBA (n=9) or 4-HOBA (n=6). Plasma was collected 30 min after oral gavage of mice with either 2-HOBA or 4-HOBA (5 mg each mouse). (Mean±SEM shown for each, p=0.388 Mann-Whitney Test.) B-C. Levels of HOBA were measured in the aorta and heart of male Ldlr^−/− mice consuming a chow diet 30 min after oral gavage of 2-HOBA or 4-HOBA (5 mg each mouse). (Mean±SEM shown for each, N.S. Student t test). The levels of 2-HOBA or 4-HOBA were measured in the plasma and tissues using LC/MS as described in the Methods.
Ldlr^−/− and WT on C57BL/6 background mice were obtained from the Jackson Laboratory. Animal protocols were performed according to the regulations of Vanderbilt University's Institutional Animal Care and Usage Committee. Mice were maintained on chow or a Western-type diet containing 21% milk fat and 0.15% cholesterol (Teklad). Eight week old, female Ldlr^−/− mice on a chow diet were pretreated with vehicle alone (Water) or containing either 1 g/L of 4-HOBA or 1 g/L of 2-HOBA. 4-HOBA (as hydrochloride salt) was synthesized as previously described^21. 2-HOBA (as the acetate salt, CAS 1206675-01-5) was manufactured by TSI Co., Ltd. (Missoula, MT) and obtained from Metabolic Technologies, Inc., Ames, IA^24. A commercial production lot was used (Lot 16120312), and the purity of the commercial lot was verified to be >99% via HPLC and NMR spectroscopy^24. After two weeks, the mice continued to receive these treatments but were switched to a western diet for 16 weeks to induce hypercholesterolemia and atherosclerosis. Similarly, 12 week-old male Ldlr^−/− mice were pretreated with vehicle alone (water) or containing 1 g/L of 2-HOBA for two weeks and were then switched to a western diet for 16 weeks to induce hypercholesterolemia and atherosclerosis, while continuing the treatment with 2-HOBA or water alone^58, 59, 60 Based on the average weight and daily consumption of water per mouse the estimated daily dosage with 1 g/L of 2-HOBA is 200 mg/Kg. […] Eight week old, male Ldlr^−/− mice were fed a western diet for 16 weeks and were continuously treated with water containing either 2-HOBA or 4-HOBA. Urine samples were collected using metabolic cages (2 mice in one cage) during 18 h after oral gavage with either 2-HOBA or 4-HOBA (5 mg each mouse).
as §1

primary macrophages = assay: H2O2-induced apoptosis of macrophages (Annexin V); assay type: cell-based, mouse; settings: 250 μM H2O2, 24 h, 500 μM compound; compared to vehicle or 4-HOBA
Method: (6A and 6B) Mouse aortic endothelial cells (6A) or primary macrophages (6B) were incubated for 24 h with 250 μM H2O2 alone or with either 4-HOBA or 2-HOBA (500 μM). Apoptotic cells were then detected by Annexin V staining and flow cytometry. (6C to 6H) The mRNA levels of IL-1β, IL-6, and TNF-α were analyzed by real time PCR in the peritoneal macrophages incubated for 24 h with either oxidized LDL (6C-6E) or 250 μM H2O2 (6F-6H) alone or with either 4-HOBA or 2-HOBA (500 μM). (6A to 6H) Data are presented as mean±SEM from three independent experiments, ***p<0.001, One-way ANOVA with Bonferroni's post hoc test.
Peritoneal macrophages were isolated from mice 72 hours post injection of 3% thioglycollate and maintained in DMEM plus 10% fetal bovine serum (FBS, Gibco) as previously described^30. Human aortic endothelial cells (HAECs) were obtained from Lonza and maintained in endothelial cell basal medium-2 plus 1% FBS and essential growth factors (Lonza).
Cell apoptosis was induced as indicated and detected by fluorescent labeled Annexin V staining and quantitated by either Flow Cytometry (BD 5 LSRII) or counting Annexin V positive cells in images captured under a fluorescent microscope. The apoptotic cells in atherosclerotic lesions were measured by TUNEL staining of cross-sections of atherosclerotic proximal aortas as previously described^30. […]

Compound | liver, spleen, and kidney levels of 2-HOBA versus 4-HOBA [1] | clearance, 4-HOBA vs 2-HOBA ([1]; after intraperitoneal injection) | plasma levels after intraperitoneal injection, 4-HOBA vs 2-HOBA ([1]; female C57BL/6J mice, 1 mg i.p.) | concentration at 16 weeks [2] [ng/mL] | levels in the aorta and heart [2] | plasma levels of 2-HOBA versus 4-HOBA [2] | number of apoptotic cells, macrophage cultures (primary macrophages)
NCc1ccc(O)cc1 [4-HOBA, 4-hydroxybenzylamine, reference compound] | not significantly different | more rapid clearance; also recorded: cleared more rapidly | slightly higher initially | 25 ± 3 | similar | not significantly different | –
NCc1ccccc1O [2-HOBA, 2-hydroxybenzylamine] | not significantly different | – | – | 469 ± 38 | similar | not significantly different | markedly decreased
